Columns and labels:
[1] = tested on: renal transplanted patient PBMCs; assay: Immunobiogram: disc diffusion gradient in collagen-methylcellulose hydrogel in 12 channelled well plates, clinical study; assay type: cell-based, human; settings: patient 211; compared with tacrolimus and prednisone curves; FIG. 31
Protocol: A multicenter study was conducted with a cohort of 70 renal transplant recipient patients, also 10 healthy volunteers were included for comparison purposes. The inclusion criteria consisted in men and women aged over 18 years with kidney transplant performed at least 1 year prior to inclusion. Patients present different defined and registered immunological risk profiled when included. Transplant patient clinical history includes complete recording of previous and updated immunological relevant data at the inclusion time.
Sample collection for the immunobiogram implementation consisted in two sodium heparin Vacutainer® tubes. Human PBMCs extraction from blood sample was performed using density gradient centrifugation (760 G during 15-20 minutes at RT) in adequate hydrophilic isosmotic polysaccharide solutions with a density of 1.077 g/ml (Pancoll, PAN BIOTECH GmbH or Ficoll, GE Healthcare). Cells were extracted with pipette from the gradient interphase and then washed in HBSS w/o Ca, Mg and Phenol red (Lonza), and resuspended in X-VIVO 15 (Lonza) medium. Obtained cells were frozen in cryovials with serum free medium (Profreeze-CDM, Lonza) DMSO (Sigma Aldrich) 7.5% and storage in liquid nitrogen until use. […] After the supernatant was discarded, cells were re-suspended in X-VIVO medium for further count and viability quantification. […]

[2] = general solubility profile, no test described; cited from earlier work
Human activated PBMC = assay: Disc diffusion assay in semisolid media (agarose 0.5% / collagen 0.3% hydrogels), 6 well plates, resazurin read-out; assay type: cell-based; settings: different disc loads, FIG. 12
Protocol: PBMC T-Cells were activated though incubation with Dynabeads Human T-activator CD3/CD28 agonistic antibodies (Thermo Fisher, cat #111.32D) using a ratio 1:2 (dynabeads:PBMC) in a cell culture bottle. PBMC in the absent of dynabeads were also cultured as negative control of stimulation.
Paper discs of 6 mm diameter discs were used as immunosuppressant delivery units. Discs were obtained from manual drill of Whatman™, 3 mm CHR chromatography paper sheet or using ready to use commercial paper disc (DDbiolab). Discs were sterilized by autoclave. Immunosupressant drugs (Sigma Aldrich) was dissolved in pure ethanol (Sigma Aldrich) at 20 mg/ml and stored as stock solution at −20° C. till use. […]
Resazurin (blue) transition to resofurin (pink) was monitored with the naked eye or checked after overnight incubation depending on assay design. […] Results were collected through images acquisition with visible light (Sanyo camera S1070 and E1075), ultraviolet light (UVltec Geldoc Gel Light Imaging System) and fluorescence microplate multyreader (PHERAstar® FSX Multimode Microplate Reader from BMG LABTECH or Spark® 10M Tecan.). Inhibitory gradients halos or fronts induced by discs loaded with immunosuppressants were quantified with ImageJ software in a semi-automated process or Spark control v1.2.25 software. […]

stimulated human PBMCs = assay: Liquid media serial dilution assay in standard 96 well microplate, resazurin read-out; assay type: cell-based
Protocol: Human PBMC were extracted for Buffy coat bags from blood bank volunteer donation using density gradient centrifugation in adequate hydrophilic isosmotic polysaccharide solutions with a density of 1.077 g/ml (Pancoll, PAN BIOTECH GmbH or Ficoll, GE Healthcare) at 760 G during 20 minutes at RT. Cells were extracted with pipette from the gradient interphase and then washed in HBSS w/o Ca, Mg and Phenol red (Lonza), and resuspended in X-VIVO 15 (Lonza) medium. Obtained cells were frozen in cryovials with serum free medium (Profreeze-CDM, Lonza) DMSO (Sigma Aldrich) 7.5% and storage until use in liquid nitrogen.
A few days later, removed vials from liquid nitrogen were immediately thawed in a 37° C. water bath for 2 minutes. […] After supernatant discard, cells were re-suspended in X-VIVO medium for further count and viability quantification.
After thawing PBMCs viability was quantified by trypan blue and Neubauer chamber. […]
After 10-12 hours of incubation with presto blue, 100 ul of each well were transferred to a 96 well ELISA plate, and then absorbance at 570 and 620 nm wavelength was quantified in a robotic absorbance microplate reader (Tekan, Infinite F50). Final values were obtained as result of absorbance at 570 nm minus absorbance at 620 nm, following instructions from presto blue manufacturer (Thermo Fisher). […]

Row | SMILES | Immunobiogram response curve [1] | aqueous solubility [2] | inhibitory halos over activated human PBMC (Human activated PBMC) | recovery of PBMC proliferative capacity versus positive control (stimulated human PBMCs; 96 standard wells microplate serial dilutions, all concentration tested, even femtomolar, FIGS. 14 and 15) | inhibitory effect over stimulated human PBMCs (stimulated human PBMCs; standard wells, all the concentrations tested (even at femtomolar levels))
1 | COc1c(C)c2c(c(O)c1C/C=C(\C)CCC(=O)OCCN1CCOCC1)C(=O)OC2 [MMF, micofenolate] | less responsive |  |  |  | 
2 | COc1c(C)c2c(c(O)c1C/C=C(\C)CCC(=O)O)C(=O)OC2 [Mycophenolic acid, Mycophenolic Acid] |  | good aqueous solubility | Dose dependant inhibitory halos |  | 
3 | CO[C@H]1C[C@@H]2CC[C@@H](C)[C@@](O)(O2)C(=O)C(=O)N2CCCC[C@H]2C(=O)O[C@H]([C@H](C)C[C@@H]2CC[C@@H](OCCO)[C@H](OC)C2)CC(=O)[C@H](C)/C=C(\C)[C@@H](O)[C@@H](OC)C(=O)[C@H](C)C[C@H](C)/C=C/C=C/C=C/1C [Everolimus] |  |  | Dose dependant inhibitory halos | did not recover proliferative capacity comparable with positive control level | at least some inhibitory level effect
